From publication PMC8657848, “Developmental Toxicity and Biotransformation of Two Anti-Epileptics in Zebrafish Embryos and Early Larvae” (International Journal of Molecular Sciences, 2021)
Like-named read-outs stand apart in the source and are kept apart here.

Tests used:
[1] = Microsomal incubation with CBZ and PHE, rat liver microsomes; type: in vitro ADME; details: rat adult liver microsomes; data not shown
Description: (§1) Moreover, positive and negative controls were included: pooled human liver microsomes (Gibco™, HMMCPL–PL050B, Thermo Fisher Scientific) and Insect Cell Control Supersomes™ (lot number: PL050 C-B, 456201, Corning Incorporated, Corning, NY, USA), respectively. Based on Oziolor et al., microsomal reactions were initiated after adding the substrate solution at a concentration of 100 µM (see Supplementary Table S1) in a mixture of 100 mM K3PO4 buffer (Corning® Gentest™, NY, USA) of pH 7.4, 5% and 1% of NADPH regenerating system reagents A and B, respectively (Corning, Woburn, MA, USA) and 200 µg/mL of microsomal protein, for a total volume of 500 µL. The reactions were performed at 28.5 ± 0.3 °C until the time point of interest. […]
(§2) For the quantification of the metabolites E-CBZ and HPPH, the samples processed were the microsomal incubation reactions (see Section 4.3.2), the zebrafish culture and stock medium (4.2.1) and the zebrafish embryos/larvae extracts (see Section 4.2.3). […] To quantify the concentrations of E-CBZ and HPPH in these samples, standard curves (in duplicate) of 10 concentrations for E-CBZ (0.5–400 ng/mL; see Supplementary Table S1) and HPPH (2–1600 ng/mL; see Supplementary Table S1) were prepared, as were quality controls. […]

zebrafish embryos = details: cited from earlier work; for Embryos affected, combining teratogenic and lethal effects: after three days of exposure
[2] = Microsomal incubation with CBZ and PHE, human liver microsomes; type: in vitro ADME; details: human adult liver microsomes; data not shown
Description: as §1, §2

zebrafish embryos/larvae = test: Quantification of parent compounds and metabolites in whole zebrafish embryos/larvae homogenate extracts; details: for Uptake by embryos and larvae (quantified in homogenate extracts): CBZ, PHE 31.25, 85, 250 µM, E-CBZ, HPPH 250 µM
Description: In three biological replicates (n = 3; 20 embryos/replicate) and at the two desired developmental stages (24 and 120 hpf), embryos/larvae of each test and control group were pooled and then rinsed three times with cold EMS (4 °C) on a mesh (Cell strainer […] Nylon, Steril Falcon®, Durham, NC, USA). Embryos collected at 24 hpf were not dechorionated, as the focus of this study was on the potential formation of the mammalian active metabolites. Moreover, it was argued that the chorion was more permeable than previously believed and that dechorionation could increase background malformations during gross morphology investigation. Embryos/larvae were then transferred and kept for five min in cryotubes (Cryo.S™, Greiner Bio-One, Frickenhausen, Germany) filled with 500 µL of cold embryo medium (4 °C), before being snap-frozen in liquid nitrogen and kept, for later use, at −80 °C (Figure 9).
The extraction preparation was based on Brox et al. for two developmental stages, 24 and 120 hpf, and performed in triplicate for each test group (n = 3, 20 embryos/replicate) (Figure 9). On the day of the extraction procedure, frozen samples (see Section 4.2.1) were thawed on ice and EMS was removed. A volume of 500 µL of acetonitrile (ACN) (purity ≥99.9%, Merck, Darmstadt, Germany) containing the internal standard lamotrigine, LAMO, (≥98% purity, CAS number: 84057-84-1, Sigma-Aldrich, Merck, Darmstadt, Germany) was then added to each tube to reach a final concentration of 0.39 µM, after dilution in HPLC-grade water. Samples were vortexed (VM3, CAT, Germany) for 5 min at a 2000 rotation/min speed, before being placed on ice and ultrasonicated with an Ultrasonic Processor VCX 130 (Sonics, Newtown, CT, USA) fifteen times for 30 s at an 80% amplitude with pause intervals of 30 s. Supernatants of the samples were then centrifuged (Centrifuge 5424 R, Eppendorf, Hamburg, Germany) twice at 4 °C for 15 min at 15,000× g, snap-frozen and kept for later use at −80 °C, whereas the pellets were discarded.
First, both sample types were processed to reach a final percentage of 30% ACN and a concentration of 0.39 µM of the IS, LAMO. […] Calibration curves and quality controls were prepared in their corresponding reaction mixtures to minimize matrix or extraction process effects. The analytical investigations were performed on an Acquity Ultra Performance Liquid Chromatography (UPLC) with sample manager, binary solvent manager, diode array detector and a triple-quadrupole detector (ACQUITY UPLC-triple quadrupole detector, Waters, Milford, CT, USA) equipped with the Masslynx software (version 4.1). […] Separation was accomplished in 6 min, using a flow rate of 0.5 mL/min. The solvent gradient program was set as follows: 85% A/15% B (0–0.5 min); 85–0% A/15–100% B (0.5–3.3 min); 0% A/100% B (3.3–4.4 min); 0–85% A/100–15% B (4.4–4.5 min); 85% A/15% B (4.5–6 min). The column was set at 40 °C and the injection volume was 10 μL. For the mass spectrometric conditions, the following parameters were used in positive ionization mode: capillarity voltage 3.5 kV, extractor voltage 3 V, cone voltage 35 V, Rf lens 0.1 V. The source temperature was set at 120 °C and the desolation temperature at 450 °C. The desolvation gas flow was fixed at 1000 L/h and cone gas flow at 50 L/h. […] The limit of quantification, linearity, matrix effects and specificity of the method developed for each compound were validated based on the European Medicines Agency (EMA) guidelines for bioanalytical method validation and the study from Kislyuk et al..
For the quantification of the metabolites E-CBZ and HPPH, the samples processed were the microsomal incubation reactions (see Section 4.3.2), the zebrafish culture and stock medium (4.2.1) and the zebrafish embryos/larvae extracts (see Section 4.2.3). Samples from the different experiments were also prepared, as for the parent compounds, to reach a final percentage of 30% ACN and a concentration of 0.39 µM of the IS, LAMO.

Structure (SMILES)	Decrease of parent compound after 240 min (pilot investigation) [1]	Embryos affected, combining teratogenic and lethal effects (zebrafish embryos; 31.25 µM)	Embryos affected, combining teratogenic and lethal effects (zebrafish embryos; 250 µM)	Percentage of larvae affected at 72 hpf (zebrafish embryos; 250 µM)	Decrease of parent compound after 240 min (pilot investigation) [2]	E-CBZ in embryo/larva extracts after exposure to CBZ (zebrafish embryos/larvae; 31.25 µM CBZ, 24 and 120 hpf)	Internal concentration, fold lower at 120 hpf than at 24 hpf (zebrafish embryos/larvae; 85 µM)	Uptake by embryos and larvae (quantified in homogenate extracts) (zebrafish embryos/larvae; 24 and 120 hpf)	HPPH in embryo/larva extracts after exposure to PHE (zebrafish embryos/larvae; 24 hpf and 120 hpf, any samples)	Internal concentration, times higher at 24 hpf than at 120 hpf (zebrafish embryos/larvae; all concentrations)
NC(=O)N1c2ccccc2C=Cc2ccccc21 [CBZ, carbamazepine]	no changes	less than 20%	around 50%	48.3 ± 11.5%	no changes	could not be detected	3.4 fold	taken up	–	–
O=C1NC(=O)C(c2ccccc2)(c2ccccc2)N1 [PHE, phenytoin]	very slight decrease	less than 20%	around 50%	45.0 ± 21.8%	No decrease	–	–	taken up	could not detect	~5 times
